These results are taken from US20120184583A1, “MODULATORS OF ATP-BINDING CASSETTE TRANSPORTERS” (VERTEX PHARMACEUTICALS INCORPORATED, priority 2003, published 2012).

The target of the first assay is T1, ΔF508-CFTR stably expressed in NIH3T3 cells (Homo sapiens, UniProt P13569, DEL508-508).
T1 construct: expressed in transfected cells
T1 sequence (P13569 with tags, fused parts or gaps DEL508-508): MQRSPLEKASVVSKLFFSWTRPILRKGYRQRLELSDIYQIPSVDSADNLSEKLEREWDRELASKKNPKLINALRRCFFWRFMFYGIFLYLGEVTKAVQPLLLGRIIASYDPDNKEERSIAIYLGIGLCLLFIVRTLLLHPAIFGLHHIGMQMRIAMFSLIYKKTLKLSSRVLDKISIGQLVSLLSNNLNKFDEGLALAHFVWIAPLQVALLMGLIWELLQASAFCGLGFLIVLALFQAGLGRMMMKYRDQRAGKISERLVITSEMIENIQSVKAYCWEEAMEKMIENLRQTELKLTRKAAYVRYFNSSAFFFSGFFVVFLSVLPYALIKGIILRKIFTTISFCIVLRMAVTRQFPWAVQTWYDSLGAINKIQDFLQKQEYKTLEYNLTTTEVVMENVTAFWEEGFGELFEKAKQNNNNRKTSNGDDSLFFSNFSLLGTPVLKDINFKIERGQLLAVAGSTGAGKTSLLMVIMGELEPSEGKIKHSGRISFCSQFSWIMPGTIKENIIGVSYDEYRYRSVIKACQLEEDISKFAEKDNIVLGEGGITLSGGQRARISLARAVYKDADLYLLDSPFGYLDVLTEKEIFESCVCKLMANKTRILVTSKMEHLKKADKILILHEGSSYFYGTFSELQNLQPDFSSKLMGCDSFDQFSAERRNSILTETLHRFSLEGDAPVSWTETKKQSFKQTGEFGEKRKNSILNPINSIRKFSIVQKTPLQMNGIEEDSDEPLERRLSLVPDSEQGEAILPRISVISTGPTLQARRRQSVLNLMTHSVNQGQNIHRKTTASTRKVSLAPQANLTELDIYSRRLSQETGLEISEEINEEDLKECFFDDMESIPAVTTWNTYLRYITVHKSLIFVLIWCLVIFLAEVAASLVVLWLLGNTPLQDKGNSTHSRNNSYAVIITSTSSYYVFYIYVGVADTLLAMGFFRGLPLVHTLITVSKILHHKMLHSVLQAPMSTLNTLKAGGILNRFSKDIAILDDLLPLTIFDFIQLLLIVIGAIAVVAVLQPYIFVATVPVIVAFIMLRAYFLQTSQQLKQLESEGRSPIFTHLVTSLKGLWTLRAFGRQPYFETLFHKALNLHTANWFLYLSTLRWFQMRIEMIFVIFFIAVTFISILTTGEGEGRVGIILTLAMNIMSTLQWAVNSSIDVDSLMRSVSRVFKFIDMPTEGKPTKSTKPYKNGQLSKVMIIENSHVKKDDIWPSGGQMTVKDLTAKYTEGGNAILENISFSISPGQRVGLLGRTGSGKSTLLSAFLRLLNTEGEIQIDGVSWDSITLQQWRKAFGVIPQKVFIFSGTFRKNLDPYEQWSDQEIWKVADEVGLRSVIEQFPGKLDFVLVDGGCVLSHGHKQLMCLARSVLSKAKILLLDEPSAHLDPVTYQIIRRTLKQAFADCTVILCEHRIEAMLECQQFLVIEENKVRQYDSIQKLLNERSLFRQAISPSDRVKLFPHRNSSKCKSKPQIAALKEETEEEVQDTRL
As to the kind of experiment: Membrane potential optical (FRET/VIPR) assay for ΔF508-CFTR potentiation.
Conditions: not given
It counts as cell-based. An excerpt: Membrane potential optical methods for assaying ΔF508-CFTR potentiation properties of compounds.
These voltage sensitive assays are based on the change in fluorescence resonant energy transfer (FRET) between the membrane-soluble, voltage-sensitive dye, DiSBAC2(3), and a fluorescent phospholipid, CC2-DMPE, which is attached to the outer leaflet of the plasma membrane and acts as a FRET donor. Changes in membrane potential (Vm) cause the negatively charged DiSBAC2(3) to redistribute across the plasma membrane and the amount of energy transfer from CC2-DMPE changes accordingly. The changes in fluorescence emission were monitored using VIPR™ II, which is an integrated liquid handler and fluorescent detector designed to conduct cell-based screens in 96- or 384-well microtiter plates.
To identify potentiators of ΔF508-CFTR, a double-addition HTS assay format was developed (FIG. 1A). During the first addition, a Cl^−-free medium with or without test compound was added to each well. After 22 sec, a second addition of Cl^−-free medium containing 2-10 μM forskolin was added to activate ΔF508-CFTR. The extracellular Cl^− concentration following both additions was 28 mM, which promoted Cl^− efflux in response to ΔF508-CFTR activation and the resulting membrane depolarization was optically monitored using the FRET-based voltage-sensor dyes. The double-addition format has several advantages. First, it enables separation of compounds that act independently of forskolin-activated ΔF508-CFTR. Second, it allows compounds that act from the cytoplasmic surface of the channel to cross the plasma membrane and take effect. Lastly, fluorescent changes that arise from test compound addition alone can be identified.
High-throughput assay format for identifying potentiators of ΔF508-CFTR stably expressed in NIH3T3 cells.
FIG. 1A: Double-addition assay format in which Cl^−-free medium was added with or without the test compound prior to forskolin addition. The cells were incubated at 27° C. for 16-24 hr prior to use.
• Bath Solution #1: (in mM)NaCl 160, KCl 4.5, CaCl2 2, MgCl2 1, HEPES 10, pH 7.4 with NaOH. • Chloride-free bath solution: Chloride salts in Bath Solution #1 are substituted with gluconate salts. • CC2-DMPE: Prepared as a 10 mM stock solution in DMSO and stored at −20° C. • DiSBAC2(3): Prepared as a 10 mM stock in DMSO and stored at −20° C.
NIH3T3 mouse fibroblasts stably expressing ΔF508-CFTR are used for optical measurements of membrane potential. The cells are maintained at 37° C. in 5% CO2 and 90% humidity in Dulbecco's modified Eagle's medium supplemented with 2 mM glutamine, 10% fetal bovine serum, 1×NEAA, β-ME, 1×pen/strep, and 25 mM HEPES in 175 cm^2 culture flasks. For all optical assays, the cells were seeded at 30,000/well in 384-well matrigel-coated plates and cultured for 2 hrs at 37° C. before culturing at 27° C. for 24 hrs.
For `O=c1c(-c2ccc(O)cc2)coc2cc(O)cc(O)c12` [genistein, reference compound], the “effect on forskolin-induced membrane depolarization” value is “augmented”.

Staying with this assay, now noted: NIH3T3, read-out: % Efficacy (relative modulating efficacy in comparison with genistein), normalized to peak genistein response.
For `Cc1ccc(O)c(-c2cc(-c3ccccc3Oc3ccccc3)n[nH]2)c1` [IA-84], the Emax lay within 35 to 75%.

For the compound `Cc1cc(C)c(-c2cc(-c3cc(C)ccc3O)[nH]n2)c(C)c1` [IA-85], the Emax lay within 35 to 75%.

For the compound `Cc1ccc(O)c(-c2cc(-c3cccnc3Sc3ccc(Cl)cc3)n[nH]2)c1` [IA-86], the Emax lay within 35 to 75%.

Take `Cc1ccc(O)c(-c2cc(-c3cccc([N+](=O)[O-])c3)n[nH]2)c1` [IA-87]: the Emax fell in the range of 35 to 75%.

As to `Oc1ccc(Cl)cc1-c1cc(-c2ccc(F)cc2)[nH]n1` [IA-88], the Emax fell in the range of 35 to 75%.

For `Cc1ccc(O)c(-c2cc(-c3cc(Cl)ccc3C(F)(F)F)n[nH]2)c1` [IA-89], the Emax was 35 to 75%.

Turning to `Oc1ccc(Cl)cc1-c1cc(-c2ccc(C(F)(F)F)cc2)[nH]n1` [IA-90], the Emax is 35 to 75%.

Consider `Cc1ccc(O)c(-c2cc(C(Cc3ccccc3)NS(=O)(=O)c3cccc4ccccc34)n[nH]2)c1` (stereo not shown) [IA-91], for which the Emax is 35 to 75%.

`Cc1cc(-c2cc(-c3cc(F)ccc3O)n[nH]2)c(C(F)(F)F)o1` [IA-92]: the Emax was in the range of 35 to 75%.

In the case of `Cc1ccc(O)c(-c2cc(-c3ccncc3)n[nH]2)c1` [IA-93], the Emax was 35 to 75%.

`COc1ccccc1-c1cc(-c2cc(C)ccc2O)[nH]n1` [IA-94]: the Emax lay in the range of 35 to 75%.

As to `Cc1ccc(O)c(-c2cc(-c3nc(C)c(-c4ccc5c(c4)OCC5)s3)n[nH]2)c1` [IA-95], the Emax lay in the range of 35 to 75%.

For `O=[N+]([O-])c1ccccc1-c1cc(-c2ccccc2O)n[nH]1` [IA-97], the Emax lay in the range of 35 to 75%.

In the case of `Oc1ccccc1-c1cc(-c2ccc(C(F)(F)F)cc2F)n[nH]1` [IA-98], the Emax is 35 to 75%.

Take `COc1ccc(-c2cc(-c3cc(C)ccc3O)n[nH]2)c(F)c1` [IA-99]: the Emax lay within 35 to 75%.

As for `COc1ccc(-c2cc(-c3ccc(C)cc3O)n[nH]2)cc1` [IA-100], the Emax was 35 to 75%.

For the compound `CCOc1ncccc1-c1cc(-c2ccccc2O)[nH]n1` [IA-101], the Emax lay within 35 to 75%.

With `Cc1ccc(O)c(-c2cc(-c3ccc([N+](=O)[O-])cc3)n[nH]2)c1` [IA-102], the Emax was 35 to 75%.

With `Cc1ccc(O)c(-c2cc(-c3ccc(C(F)(F)F)cc3)[nH]n2)c1` [IA-103], the Emax was less than 35%.

For the compound `Cc1ccc(O)c(-c2cc(-c3ccc(F)cc3)[nH]n2)c1` [IA-104], the Emax is 35 to 75%.

Regarding `Cc1ccc(O)c(-c2cc(-c3c(Cl)cccc3Cl)n[nH]2)c1` [IA-105], the Emax lay within 35 to 75%.

`Cc1ccc(-c2cc(-c3cccc(F)c3)[nH]n2)c(O)c1` [IA-106]: the Emax fell in the range of 35 to 75%.

Regarding `Cc1ccc(O)c(-c2cc(-c3cc(C)on3)n[nH]2)c1` [IA-107], the Emax fell in the range of 35 to 75%.

In the case of `O=[N+]([O-])c1ccc(-c2cc(-c3cc(C(F)(F)F)ccc3O)[nH]n2)cc1` [IA-114], the Emax was in the range of 35 to 75%.

For `Cc1ccc(O)c(-c2cc(-c3cc(Cl)ccc3F)n[nH]2)c1` [IA-115], the Emax is less than 35%.

Still in this assay, the particulars now being: data not shown.
Consider `O=c1c(-c2ccc(O)cc2)coc2cc(O)cc(O)c12` [genistein, reference compound], for which the “membrane potential response in the absence of forskolin addition” value is listed as “no response”.

Still in this assay, the particulars now being: normalized to peak genistein response.
For the compound `Oc1ccccc1-c1cc(-c2ccccc2Cl)[nH]n1` [IA-113], the “% Efficacy (relative modulating efficacy in comparison with genistein)” value is recorded as “+ (an efficacy range of <35% when compared to genistein)”.

The same assay, now with this note: optical assay, n=35.
`O=c1c(-c2ccc(O)cc2)coc2cc(O)cc(O)c12` [genistein, reference compound]: the “potentiation of the forskolin-induced response” value is 72.8±7.2%.

The target in a further assay is T2, ΔF508-CFTR expressed in FRT epithelial cells (Homo sapiens, UniProt P13569, DEL508-508).
T2 construct: expressed in transfected cells; host or cells: Fisher rat epithelial (FRT) cells, vector-infected
T2 sequence (P13569 with tags, fused parts or gaps DEL508-508): as above
As to the kind of experiment: Ussing chamber assay, short-circuit current in FRT epithelia. It counts as cell-based. The note with it: genistein 50 μM added after forskolin 10 μM, n=8.
Description: FRT^ΔF508-CFTR epithelial cells grown on Costar Snapwell cell culture inserts were mounted in an Ussing chamber (Physiologic Instruments, Inc., San Diego, Calif.), and the monolayers were continuously short-circuited using a Voltage-clamp System (Department of Bioengineering, University of Iowa, Iowa, and, Physiologic Instruments, Inc., San Diego, Calif.). Transepithelial resistance was measured by applying a 2-mV pulse. […] Typical protocol utilized a basolateral to apical membrane Cl^− concentration gradient. To set up this gradient, normal ringers was used on the basolateral membrane and was permeabilized with nystatin (360 μg/ml), whereas apical NaCl was replaced by equimolar sodium gluconate (titrated to pH 7.4 with NaOH) to give a large Cl concentration gradient across the epithelium. All experiments were performed 30 min after nystatin permeabilization. The solutions were maintained at 27° C. and bubbled with air. The electrode offset potential and fluid resistance were corrected using a cell-free insert. Under these conditions, the current reflects the flow of Cl^− through ΔF508-CFTR expressed in the apical membrane. The ISC was digitally acquired using an MP100A-CE interface and AcqKnowledge software (version 3.2.6; BIOPAC Systems, Santa Barbara, Calif.). Forskolin (10 μM) and all test compounds were added to both sides of the cell culture inserts. […]
For `O=c1c(-c2ccc(O)cc2)coc2cc(O)cc(O)c12` [genistein, reference compound], the “ISC potentiated to” value worked out at 21±1.5 μA/cm^2.

The assay is the same for the next values; noted with them: no forskolin, data not shown.
Take `O=c1c(-c2ccc(O)cc2)coc2cc(O)cc(O)c12` [genistein, reference compound]: the “stimulation of ISC when applied prior to forskolin addition” value was “did not stimulate”.
